Test results published in patent US20020160981A1, “Compositions containing an association of aspirin and an anti-Xz oligosaccharide and use of an anti-Xa oligosaccharide optionally in combination with aspirin” (Sanofi-Synthelabo, priority 1997, published 2002).

Columns and labels:
prothrombin fragment 1+2 = prothrombin fragment 1+2 levels in PTCA patients; format: in vivo, human; details: 2 hours after PS injection; fell from 2.08±1.04 before
[1] = tested on: patients undergoing a transluminal angioplasty of the coronaries; experiment: pilot clinical study in patients undergoing PTCA: thrombus formation at PTCA sites and TIMI flow in target vessel; format: in vivo, human; details: 71 patients
Experimental: A single dose of 12 mg of PS via the intravenous route and 500 mg of aspirin, via the intravenous route, was administered to the patients.
To assess the antithrombotic activity 71 patients with stable angina (26), recent unstable angina (11) or recent myocardial infarction (34) with type A or B coronary lesions underwent PTCA with a single 12 mg PS i.v. bolus injection and 500 mg i.v. aspirin. Angiography was repeated 24 h after PTCA. The endpoints were thrombus formation at PTCA sites and the thrombolysis in myocardial infarction (TIMI) flow in target vessel. Heparin was not allowed before, during and within 24 h after PTCA.

[2] = activated clotting time (ACT) in PTCA patients; format: in vivo, human; details: after 12 mg PS i.v. and 500 mg i.v. aspirin
[3] = tested on: Thrombin-antithrombin complexes; experiment: thrombin-antithrombin complexes levels (TAT) in PTCA patients; format: in vivo, human; details: 2 hours after PS injection; fell from 21.9±18.7 before
[4] = single 12 mg PS i.v. bolus and 500 mg i.v. aspirin, no heparin

CO[C@H]1OC(COS(=O)(=O)O)[C@@H](O[C@@H]2OC(C(=O)O)[C@H](O[C@@H]3OC(COS(=O)(=O)O)[C@@H](O[C@@H]4OC(C(=O)O)[C@@H](O[C@H]5OC(COS(=O)(=O)O)[C@@H](O)C(O)C5NS(=O)(=O)O)C(O)C4O)C(OS(=O)(=O)O)C3NS(=O)(=O)O)C(O)C2OS(=O)(=O)O)C(O)C1NS(=O)(=O)O (stereo partly drawn) [PS, methyl O-(2-deoxy-2-sulphoamino-6-O-sulpho-α-D-gluco-pyranosyl)-(1→4)-O-(β-D-glucopyranosyluronic acid)-(1→4)-O-(2-deoxy-2-sulphoamino-3,6-di-O-sulpho-α-D-glucopyranosyl)-(1→4)-O-(2-O-sulpho-α-L-idopyranosyl-uronic acid)-(1→4)-2-deoxy-2-sulphoamino-6-O-sulpho-α-D-glucopyranoside]
prothrombin fragment 1+2 (prothrombin fragment 1+2): 1.54 ± 82 ng/mL | major bleeding ([1]; 12 mg PS i.v. and 500 mg i.v. aspirin): No major bleeding occurred | Acute thrombotic closure at dissected PTCA site [1, 4]: 1 patient | distal embolization of a thrombus containing plaque [1, 4]: 1 patient | TIMI 3 flow without thrombus at PTCA site ([1]; at 24 h after PTCA, 12 mg PS i.v. and 500 mg i.v. aspirin): 71 patients | activated clothing time ACT [2]: remained unchanged | Anti-Xa activity, peak (factor Xa; 10 min. after 12 mg PS i.v. bolus (with 500 mg i.v. aspirin)): 1.20±0.29 U anti-Xa/ml | Anti-Xa activity, maintained on average (factor Xa; 2 hours after PS administration, 12 mg i.v. (with 500 mg i.v. aspirin)): 0.87 ±0.14 U anti-Xa/ml | Thrombin-antithrombin complexes levels (TAT) [3]: 4.8 ± 3.8 µg/L
